Data reported in ChEMBL document CHEMBL5143671, “Discovery of (R)-(3-fluoropyrrolidin-1-yl)(6-((5-(trifluoromethyl)pyridin-2-yl)oxy)quinolin-2-yl)methanone (ABBV-318) and analogs as small molecule Nav1.7/ Nav1.8 blockers for the treatment of pain” (Bioorg Med Chem, 2022).
Values after ≈ are worked out from the molar mass of the structure shown.

Assays:
physchem [1] = details: phosphate buffer
[2] = Toxicity in rat assessed as phospholipidosis measured after 10 days; details: 240 h, time 10 day
in vitro [3] = details: PAMPA
[4] = Drug concentration in brain of monoiodoacetate-induced Sprague-Dawley rat model of osteoarthritis at 3 mg/kg, po administered for 5 days and measured after 15 mins; assay type: ADME, organism-based; details: time 5 day, read-out: Ct
[5] = biological target: Voltage-gated inwardly rectifying potassium channel KCNH2 (Homo sapiens, UniProt Q12809);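 note: hERG channel blockade measured by electrophysiology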
[6] = Ratio of free drug concentration in brain to plasma of rat; assay type: ADME, cell-free; details: brain and plasma
physchem [7] = details: octanol/water
Rattus norvegicus [8] = organism: Rattus norvegicus; experiment: animal or person; details: Sprague-Dawley
[9] = Drug concentration in plasma of monoiodoacetate-induced Sprague-Dawley rat model of osteoarthritis at 10 mg/kg, po administered for 5 days and measured after 15 mins; assay type: ADME, organism-based; details: time 5 day
[10] = biological target: Sodium channel protein type 2 subunit alpha (Homo sapiens, UniProt Q99250); experiment: Inhibition of recombinant human Nav1.2 expressed in HEK293 cells incubated for 3 mins by FRET based membrane potential assay; assay type: cell-based
[11] = Drug concentration in plasma of monoiodoacetate-induced Sprague-Dawley rat model of osteoarthritis at 3 mg/kg, po administered for 5 days and measured after 15 mins; assay type: ADME, organism-based; details: time 5 day
[12] = rat, in vivo, po
[13] = Drug concentration in brain of monoiodoacetate-induced Sprague-Dawley rat model of osteoarthritis at 30 mg/kg, po administered for 5 days and measured after 15 mins; assay type: ADME, organism-based; details: time 5 day, read-out: Ct
[14] = Drug concentration in plasma of monoiodoacetate-induced Sprague-Dawley rat model of osteoarthritis at 30 mg/kg, po administered for 5 days and measured after 15 mins; assay type: ADME, organism-based; details: time 5 day
[15] = Drug concentration in brain of monoiodoacetate-induced Sprague-Dawley rat model of osteoarthritis at 10 mg/kg, po administered for 5 days and measured after 15 mins; assay type: ADME, organism-based; details: time 5 day, read-out: Ct
in vivo [16] = details: Sprague-Dawley, rat, po
[17] = Toxicity in rat assessed as phospholipidosis measured after 5 days; details: 120 h, time 5 day
in vivo [18] = details: Sprague-Dawley, rat, po; remark: listed apart in the source
Rattus norvegicus [19] = experiment: Antiallodynic activity in Sprague-Dawley rat model of L5/L6 spinal nerve ligation-induced neuropathic pain assessed as maximal possible effect at 100 mg/kg, po; assay type: functional
[20] = biological target: Sodium channel protein type 10 subunit alpha (Homo sapiens, UniProt Q9Y5Y9); experiment: Inhibition of human Nav1.8 by FRET based membrane potential assay
in vivo [21] = details: Sprague-Dawley, rat, iv
[22] = Drug concentration in brain of Sprague-Dawley rat model of L5/L6 spinal nerve ligation-induced neuropathic pain at 30 mg/kg, po by LC/MS analysis; assay type: ADME, organism-based; details: in vivo
[23] = biological target: Sodium channel protein type 5 subunit alpha (Homo sapiens, UniProt Q14524)
[24] = biological target: Sodium channel protein type 9 subunit alpha (Homo sapiens, UniProt Q15858)
[25] = human, microsomes, 0.5 h, 0.5 µM
[26] = rat, microsomes, 0.5 h, 0.5 µM
Rattus norvegicus [27] = experiment: Antiallodynic activity in Sprague-Dawley rat model of L5/L6 spinal nerve ligation-induced neuropathic pain assessed as maximal possible effect at 10 mg/kg, po; assay type: functional
[28] = Drug concentration in plasma of Sprague-Dawley rat model of L5/L6 spinal nerve ligation-induced neuropathic pain at 10 mg/kg, po by LC/MS analysis; assay type: ADME, organism-based; details: in vivo
[29] = Drug concentration in plasma of Sprague-Dawley rat model of L5/L6 spinal nerve ligation-induced neuropathic pain at 30 mg/kg, po by LC/MS analysis; assay type: ADME, organism-based; details: in vivo
[30] = Drug concentration in brain of Sprague-Dawley rat model of L5/L6 spinal nerve ligation-induced neuropathic pain at 10 mg/kg, po by LC/MS analysis; assay type: ADME, organism-based; details: in vivo
[31] = Drug concentration in brain of Sprague-Dawley rat model of L5/L6 spinal nerve ligation-induced neuropathic pain at 100 mg/kg, po by LC/MS analysis; assay type: ADME, organism-based; details: in vivo
[32] = Drug concentration in plasma of Sprague-Dawley rat model of L5/L6 spinal nerve ligation-induced neuropathic pain at 100 mg/kg, po by LC/MS analysis; assay type: ADME, organism-based; details: in vivo
Rattus norvegicus [33] = experiment: Antiallodynic activity in Sprague-Dawley rat model of L5/L6 spinal nerve ligation-induced neuropathic pain assessed as maximal possible effect at 30 mg/kg, po; assay type: functional
Rattus norvegicus [34] = organism: Rattus norvegicus; experiment: animal or person; details: Sprague-Dawley; remark: listed apart in the source
[35] = Cardiotoxicity in conscious dog CV model assessed as effect on mean arterial pressure upto […] microg/ml […]; assay type: toxicity, Canis lupus familiaris; details: dose < 5.5 µg/ml
Rattus norvegicus [36] = organism: Rattus norvegicus; experiment: animal or person; details: Sprague-Dawley; remark: listed apart in the source
[37] = Cardiotoxicity in conscious dog CV model assessed as effect on heart rate upto […] microg/ml by ECG analysis; assay type: toxicity, Canis lupus familiaris; details: dose < 5.5 µg/ml
[38] = Cardiotoxicity in conscious dog CV model assessed as effect on QT interval upto 5.5 microg/ml by ECG analysis; assay type: toxicity, Canis lupus familiaris; details: dose < 5.5 µg/ml
Rattus norvegicus [39] = experiment: Antinociceptive activity in monoiodoacetate-induced Sprague-Dawley rat model of osteoarthritis at 30 mg/kg, po administered for 5 days and measured after 180 mins by grip force testing relative to control; assay type: functional; details: time 5 day
Rattus norvegicus [40] = experiment: Antinociceptive activity in monoiodoacetate-induced Sprague-Dawley rat model of osteoarthritis at 3 mg/kg, po administered for 5 days and measured after 180 mins by grip force testing relative to control; assay type: functional; details: time 5 day
Rattus norvegicus [41] = experiment: Antinociceptive activity in monoiodoacetate-induced Sprague-Dawley rat model of osteoarthritis at 10 mg/kg, po administered for 5 days and measured after 180 mins by grip force testing relative to control; assay type: functional; details: time 5 day
MDR1 = experiment: in vitro; details: dog, MDCK-MDR1
Rattus norvegicus [42] = experiment: Antiallodynic activity in Sprague-Dawley rat model of L5/L6 spinal nerve ligation-induced neuropathic pain assessed as maximal possible effect at 30 mg/kg, ip; assay type: functional
Rattus norvegicus [43] = experiment: Antiallodynic activity in Sprague-Dawley rat model of L5/L6 spinal nerve ligation-induced neuropathic pain assessed as maximal possible effect at 10 mg/kg, ip; assay type: functional
in vitro [44] = details: dog, MDCK
[45] = Drug concentration in plasma of Sprague-Dawley rat model of L5/L6 spinal nerve ligation-induced neuropathic pain at 30 mg/kg, ip by LC/MS analysis; assay type: ADME, organism-based; details: in vivo
[46] = Drug concentration in plasma of Sprague-Dawley rat model of L5/L6 spinal nerve ligation-induced neuropathic pain at 10 mg/kg, ip by LC/MS analysis; assay type: ADME, organism-based; details: in vivo
Rattus norvegicus [47] = experiment: Antiallodynic activity in Sprague-Dawley rat model of L5/L6 spinal nerve ligation-induced neuropathic pain assessed as maximal possible effect at 3 mg/kg, ip; assay type: functional
[48] = Drug concentration in plasma of Sprague-Dawley rat model of L5/L6 spinal nerve ligation-induced neuropathic pain at 3 mg/kg, ip by LC/MS analysis; assay type: ADME, organism-based; details: in vivo
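Throughout, for logD: distribution coefficient quantified using high-throughput LC-MS.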
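Throughout, for solubility: determined using a high-throughput solubility method.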

Chain of Sodium channel protein type 2 subunit alpha (Q99250 whole entry): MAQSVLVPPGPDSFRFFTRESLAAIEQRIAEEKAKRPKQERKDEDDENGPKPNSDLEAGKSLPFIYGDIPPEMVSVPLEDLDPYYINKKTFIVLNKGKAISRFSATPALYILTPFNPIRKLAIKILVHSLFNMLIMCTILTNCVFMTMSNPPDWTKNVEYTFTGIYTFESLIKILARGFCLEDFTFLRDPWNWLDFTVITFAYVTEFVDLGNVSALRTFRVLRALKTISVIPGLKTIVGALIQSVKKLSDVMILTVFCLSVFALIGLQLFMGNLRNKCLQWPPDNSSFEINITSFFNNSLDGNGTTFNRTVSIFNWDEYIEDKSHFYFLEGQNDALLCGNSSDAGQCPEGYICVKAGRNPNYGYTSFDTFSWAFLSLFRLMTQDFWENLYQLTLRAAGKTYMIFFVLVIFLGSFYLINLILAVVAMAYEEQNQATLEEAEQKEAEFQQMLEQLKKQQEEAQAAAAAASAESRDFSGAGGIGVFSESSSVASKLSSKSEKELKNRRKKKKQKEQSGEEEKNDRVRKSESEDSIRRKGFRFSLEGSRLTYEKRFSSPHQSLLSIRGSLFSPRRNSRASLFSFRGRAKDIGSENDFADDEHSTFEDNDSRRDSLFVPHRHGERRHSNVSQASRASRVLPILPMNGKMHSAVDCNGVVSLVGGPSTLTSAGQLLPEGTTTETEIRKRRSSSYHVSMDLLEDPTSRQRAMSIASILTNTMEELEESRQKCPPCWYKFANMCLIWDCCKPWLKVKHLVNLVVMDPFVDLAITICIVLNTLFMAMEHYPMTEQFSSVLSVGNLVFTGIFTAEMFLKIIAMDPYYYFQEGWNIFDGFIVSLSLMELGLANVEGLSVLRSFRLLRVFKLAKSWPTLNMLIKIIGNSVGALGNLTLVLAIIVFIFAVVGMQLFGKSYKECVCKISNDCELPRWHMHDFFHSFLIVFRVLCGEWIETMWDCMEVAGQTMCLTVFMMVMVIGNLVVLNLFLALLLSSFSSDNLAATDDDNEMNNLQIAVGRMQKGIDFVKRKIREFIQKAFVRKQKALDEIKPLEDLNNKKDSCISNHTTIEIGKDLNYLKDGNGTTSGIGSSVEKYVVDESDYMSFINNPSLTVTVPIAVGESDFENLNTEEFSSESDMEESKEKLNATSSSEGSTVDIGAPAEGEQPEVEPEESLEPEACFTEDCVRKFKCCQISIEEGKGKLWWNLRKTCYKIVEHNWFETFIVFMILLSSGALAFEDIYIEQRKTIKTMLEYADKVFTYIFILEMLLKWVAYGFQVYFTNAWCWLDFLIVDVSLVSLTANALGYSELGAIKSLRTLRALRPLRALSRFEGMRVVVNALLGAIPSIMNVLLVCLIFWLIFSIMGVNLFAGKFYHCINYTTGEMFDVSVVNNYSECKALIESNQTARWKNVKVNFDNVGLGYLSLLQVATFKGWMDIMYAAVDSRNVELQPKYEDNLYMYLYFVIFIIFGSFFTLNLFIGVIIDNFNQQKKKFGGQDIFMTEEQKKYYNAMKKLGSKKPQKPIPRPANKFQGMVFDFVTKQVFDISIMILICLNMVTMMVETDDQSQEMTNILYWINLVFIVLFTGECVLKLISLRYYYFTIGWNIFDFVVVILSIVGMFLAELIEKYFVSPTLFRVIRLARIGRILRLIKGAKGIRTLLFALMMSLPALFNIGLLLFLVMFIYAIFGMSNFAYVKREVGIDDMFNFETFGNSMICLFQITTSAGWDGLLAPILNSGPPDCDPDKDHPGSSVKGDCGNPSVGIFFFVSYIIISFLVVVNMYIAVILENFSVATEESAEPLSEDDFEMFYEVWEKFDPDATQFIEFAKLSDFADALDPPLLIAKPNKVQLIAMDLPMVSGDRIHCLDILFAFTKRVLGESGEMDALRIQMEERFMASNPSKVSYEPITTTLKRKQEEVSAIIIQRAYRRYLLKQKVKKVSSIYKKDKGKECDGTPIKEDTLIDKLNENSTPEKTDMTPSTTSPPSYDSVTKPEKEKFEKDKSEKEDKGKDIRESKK
Chain of Voltage-gated inwardly rectifying potassium channel KCNH2 (Q12809 whole entry): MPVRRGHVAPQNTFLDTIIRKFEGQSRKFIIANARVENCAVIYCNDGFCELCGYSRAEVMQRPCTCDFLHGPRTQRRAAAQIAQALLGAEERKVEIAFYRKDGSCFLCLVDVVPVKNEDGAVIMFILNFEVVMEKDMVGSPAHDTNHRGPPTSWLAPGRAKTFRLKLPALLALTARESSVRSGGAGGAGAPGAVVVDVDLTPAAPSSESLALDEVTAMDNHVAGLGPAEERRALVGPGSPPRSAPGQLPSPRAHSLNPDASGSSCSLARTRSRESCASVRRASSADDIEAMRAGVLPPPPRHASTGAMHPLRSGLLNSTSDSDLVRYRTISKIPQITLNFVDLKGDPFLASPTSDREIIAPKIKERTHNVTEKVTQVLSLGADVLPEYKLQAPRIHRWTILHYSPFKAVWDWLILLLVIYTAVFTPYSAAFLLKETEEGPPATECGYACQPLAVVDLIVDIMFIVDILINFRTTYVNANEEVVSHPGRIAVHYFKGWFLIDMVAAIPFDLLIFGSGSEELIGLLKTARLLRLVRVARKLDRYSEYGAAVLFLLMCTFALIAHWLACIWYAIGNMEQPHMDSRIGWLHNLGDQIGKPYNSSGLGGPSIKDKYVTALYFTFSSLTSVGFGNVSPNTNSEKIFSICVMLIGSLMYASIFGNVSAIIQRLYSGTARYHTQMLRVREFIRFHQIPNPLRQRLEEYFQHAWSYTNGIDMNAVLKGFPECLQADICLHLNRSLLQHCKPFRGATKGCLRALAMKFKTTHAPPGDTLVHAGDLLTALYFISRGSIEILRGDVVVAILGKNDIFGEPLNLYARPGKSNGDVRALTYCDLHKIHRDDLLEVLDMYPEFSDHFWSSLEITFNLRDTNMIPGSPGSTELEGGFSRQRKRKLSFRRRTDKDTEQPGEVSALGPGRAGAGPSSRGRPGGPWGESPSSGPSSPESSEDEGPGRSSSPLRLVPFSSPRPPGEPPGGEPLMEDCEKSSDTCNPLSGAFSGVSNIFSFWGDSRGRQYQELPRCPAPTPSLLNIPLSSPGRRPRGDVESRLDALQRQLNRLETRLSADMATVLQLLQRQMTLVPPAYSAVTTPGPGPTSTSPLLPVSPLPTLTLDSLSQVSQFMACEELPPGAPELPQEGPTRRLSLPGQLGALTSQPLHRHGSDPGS
Chain of Sodium channel protein type 9 subunit alpha (Q15858 whole entry, looked up): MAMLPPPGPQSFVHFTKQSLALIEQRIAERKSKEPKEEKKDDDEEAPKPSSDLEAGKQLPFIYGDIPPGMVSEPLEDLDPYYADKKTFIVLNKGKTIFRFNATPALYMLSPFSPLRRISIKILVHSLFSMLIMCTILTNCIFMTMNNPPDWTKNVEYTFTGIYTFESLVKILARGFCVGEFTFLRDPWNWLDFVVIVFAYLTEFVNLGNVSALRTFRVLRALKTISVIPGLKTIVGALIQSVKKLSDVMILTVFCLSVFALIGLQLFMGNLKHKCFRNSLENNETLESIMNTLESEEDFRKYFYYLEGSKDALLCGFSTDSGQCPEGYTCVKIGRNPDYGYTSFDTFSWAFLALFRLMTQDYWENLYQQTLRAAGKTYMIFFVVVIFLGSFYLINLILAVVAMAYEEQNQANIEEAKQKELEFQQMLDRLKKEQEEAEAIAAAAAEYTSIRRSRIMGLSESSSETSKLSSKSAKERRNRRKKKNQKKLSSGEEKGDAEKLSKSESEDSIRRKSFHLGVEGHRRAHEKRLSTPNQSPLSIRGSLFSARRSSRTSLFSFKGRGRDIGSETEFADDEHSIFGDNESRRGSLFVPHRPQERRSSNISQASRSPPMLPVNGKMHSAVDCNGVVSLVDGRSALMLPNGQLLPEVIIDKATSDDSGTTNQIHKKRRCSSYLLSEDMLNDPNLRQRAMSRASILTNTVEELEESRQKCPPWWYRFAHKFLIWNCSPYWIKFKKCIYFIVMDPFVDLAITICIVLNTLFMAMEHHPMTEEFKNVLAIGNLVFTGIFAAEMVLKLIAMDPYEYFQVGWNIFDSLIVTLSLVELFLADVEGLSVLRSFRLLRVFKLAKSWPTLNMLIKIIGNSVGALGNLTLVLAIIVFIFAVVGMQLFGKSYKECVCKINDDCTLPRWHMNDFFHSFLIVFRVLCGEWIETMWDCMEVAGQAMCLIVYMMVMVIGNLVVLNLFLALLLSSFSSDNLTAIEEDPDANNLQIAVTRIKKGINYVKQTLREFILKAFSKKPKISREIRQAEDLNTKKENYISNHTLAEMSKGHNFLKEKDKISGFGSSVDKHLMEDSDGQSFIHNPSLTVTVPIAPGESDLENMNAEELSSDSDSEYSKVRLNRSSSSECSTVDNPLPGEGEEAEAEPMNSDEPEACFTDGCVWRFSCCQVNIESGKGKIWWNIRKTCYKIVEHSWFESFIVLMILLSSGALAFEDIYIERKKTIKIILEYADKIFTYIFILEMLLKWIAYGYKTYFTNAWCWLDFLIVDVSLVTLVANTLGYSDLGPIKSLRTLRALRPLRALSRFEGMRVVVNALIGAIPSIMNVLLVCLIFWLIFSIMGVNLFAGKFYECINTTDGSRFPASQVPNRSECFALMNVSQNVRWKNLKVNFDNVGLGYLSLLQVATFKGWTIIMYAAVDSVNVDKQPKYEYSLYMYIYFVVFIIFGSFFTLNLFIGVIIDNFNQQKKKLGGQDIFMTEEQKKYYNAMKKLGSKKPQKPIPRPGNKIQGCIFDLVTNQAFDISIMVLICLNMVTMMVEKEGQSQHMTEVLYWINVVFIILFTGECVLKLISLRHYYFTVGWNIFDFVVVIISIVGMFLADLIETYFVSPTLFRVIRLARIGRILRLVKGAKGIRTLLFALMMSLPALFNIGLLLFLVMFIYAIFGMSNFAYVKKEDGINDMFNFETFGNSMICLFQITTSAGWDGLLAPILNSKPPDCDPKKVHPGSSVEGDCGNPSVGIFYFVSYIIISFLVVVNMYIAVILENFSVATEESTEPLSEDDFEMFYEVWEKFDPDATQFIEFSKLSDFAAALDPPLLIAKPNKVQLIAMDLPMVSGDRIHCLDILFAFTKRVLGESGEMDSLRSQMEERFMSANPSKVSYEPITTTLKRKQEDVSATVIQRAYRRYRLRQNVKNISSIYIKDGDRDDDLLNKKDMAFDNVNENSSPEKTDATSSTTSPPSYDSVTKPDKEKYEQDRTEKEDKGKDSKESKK

## O=C(c1ccc2cc(Oc3ccc(C(F)F)cn3)ccc2n1)N1CCNCC1
Physchem [1]
  solubility: 150 µM (≈ 57.7 µg/mL)
[2]
  Activity: Toxic
In vitro [3]
  Papp: 3.3 ×10⁻⁶ cm/s
[4]
  concentration at 120 h: 200 ng/mL
[5]
  IC50: 29.5 µM
[6]
  Kp uu: 0.14
Physchem [7]
  logD: 2.4
Rattus norvegicus [8]
  EC50: 0.45 µg/mL (≈ 1.17 µM)
[9]
  concentration at 120 h: 4170 ng/mL
[10]
  IC50: 12.8 µM
[11]
  concentration at 120 h: 1000 ng/mL
[12]
  Vdss: 5.42 L/kg
[13]
  concentration at 120 h: 1560 ng/mL
[14]
  concentration at 120 h: 9110 ng/mL
[15]
  concentration at 120 h: 720 ng/mL
In vivo [16]
  half-life: 3.38 h
[17]
  Activity: Non-Toxic
In vivo [18]
  bioavailability: 96%

## N#Cc1ccc(Oc2ccc3c(ccc(=O)n3CCN3CCCCC3)c2)cc1
Rattus norvegicus [19]
  MPE: 89%
Physchem [1]
  solubility: 140 µM (≈ 52.3 µg/mL)
[20]
  IC50: 0.08 µM
In vitro [3]
  Papp: 3.7 ×10⁻⁶ cm/s
In vivo [21]
  clearance: 52.7 mL/min/kg
[5]
  IC50: < 1 µM
[22]
  Ct: 1.05 µg/mL
[23]
  IC50: 1.6 µM
[24]
  IC50: 2.28 µM
[6]
  Kp uu: 0.45
Physchem [7]
  logD: 3.4
[25]
  CLH: 150 mL/min/kg
[26]
  CLH: 633 mL/min/kg
Rattus norvegicus [27]
  MPE: 54%
[28]
  Cp: 290 ng/mL
[29]
  Cp: 470 ng/mL
[10]
  IC50: 3.4 µM
[30]
  Ct: 0.56 µg/mL
[31]
  Ct: 3.38 µg/mL
[32]
  Cp: 1270 ng/mL
In vivo [18]
  bioavailability: 17%
Rattus norvegicus [33]
  MPE: 53%

## O=C(c1ccc2cc(Oc3ccc(C(F)(F)F)cn3)ccc2n1)N1CCNCC1
Rattus norvegicus [34]
  EC50: 0.04 µg/mL (≈ 0.0994 µM)
Physchem [1]
  solubility: 200 µM (≈ 80.5 µg/mL)
[35]
  Activity: Non-Toxic
In vitro [3]
  Papp: 4.7 ×10⁻⁶ cm/s
Rattus norvegicus [36]
  EC50: 0.17 µg/mL (≈ 0.422 µM)
[6]
  Kp uu: 0.08
Physchem [7]
  logD: 3.1
[9]
  concentration at 120 h: 510 ng/mL
[10]
  IC50: 6.6 µM
[37]
  Activity: Non-Toxic
[11]
  concentration at 120 h: 160 ng/mL
[12]
  Vdss: 11.5 L/kg
[14]
  concentration at 120 h: 1060 ng/mL
In vivo [16]
  half-life: 12.8 h
[38]
  Activity: Non-Toxic
In vivo [18]
  bioavailability: 98%

## CS(=O)(=O)CCNC(=O)c1ccc2cc(Oc3ccc(C(F)(F)F)cn3)ccc2n1
Physchem [1]
  solubility: 29 µM (≈ 12.7 µg/mL)
In vitro [3]
  Papp: 18 ×10⁻⁶ cm/s
[5]
  IC50: 30 µM
Rattus norvegicus [39]
  Activity: 63%
Rattus norvegicus [40]
  Activity: 35%
Rattus norvegicus [41]
  Activity: 68%
In vivo [18]
  bioavailability: 80.4%

## CN1CCN(C(=O)COc2ccc3cc(Oc4ccccn4)ccc3n2)CC1
MDR1
  efflux ratio: 3.7
Physchem [1]
  solubility: 176 µM (≈ 66.6 µg/mL)
[20]
  IC50: 1.83 µM
Rattus norvegicus [42]
  MPE: 59%
Rattus norvegicus [43]
  MPE: 30%
In vivo [21]
  clearance: 54 mL/min/kg
[5]
  IC50: 30 µM
In vitro [44]
  Papp: 33.4 ×10⁻⁶ cm/s
[23]
  IC50: 33 µM
[24]
  IC50: 3.13 µM
[6]
  Kp uu: 0.88
Physchem [7]
  logD: 2.9
[25]
  CLH: < 33 mL/min/kg
[26]
  CLH: 567 mL/min/kg
[10]
  IC50: 20 µM
[45]
  Cp: 1930 ng/mL
[46]
  Cp: 400 ng/mL
Rattus norvegicus [47]
  MPE: 10%
[48]
  Cp: 110 ng/mL
In vivo [16]
  half-life: 3.38 h
In vivo [18]
  bioavailability: 10%
